# From patent publication US20260217735A1, “HETEROCYCLES AND USES THEREOF” (Kumquat Biosciences Inc., priority 2023, published 2026)
# Key:
# KRAS G12S = molecular target: T1, KRAS G12S (Homo sapiens, UniProt P01116, G12S); assay: HTRF assay, KRAS G12S interaction with SOS1; format: biochemical; settings: bins <500 nM / 500 nM to 1000 nM, read-out: Inhibition of KRAS G12S (IC50)
# T1 construct: made in house; host or cells: E. coli, e.g. BL21 (DE3)
# KRAS G12V = molecular target: T2, KRAS G12V (Homo sapiens, UniProt P01116, G12V); assay: HTRF assay, KRAS G12V interaction with SOS1; format: biochemical; settings: bins <500 nM / 500 nM to 1000 nM, read-out: Inhibition of KRAS G12V (IC50)
# T2 construct: made in house; host or cells: E. coli, e.g. BL21 (DE3)
# T2 sequence (P01116 1-188 isoform P01116-2 G12V): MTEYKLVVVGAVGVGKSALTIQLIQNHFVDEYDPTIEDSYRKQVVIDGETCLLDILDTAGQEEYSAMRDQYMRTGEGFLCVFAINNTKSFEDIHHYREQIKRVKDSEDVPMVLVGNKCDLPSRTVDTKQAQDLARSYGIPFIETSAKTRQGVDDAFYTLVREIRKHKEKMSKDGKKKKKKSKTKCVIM
# MiaPaca2 cells = assay: Ras cellular assay, growth of cells with K-Ras G12C mutation; format: cell-based; settings: Homo sapiens, MIA PaCa-2; cell proliferation assay; bins ≤500 nM / >500 nM; read-out: Inhibition of MiaPaca2 Cells (IC50)
# In short: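 Anchorage-independent growth: G12C-mutant MIA PaCa-2 plated in soft agar, time-zero plate read the next day when compound was dosed (final DMSO 0.3%). After growth to day 10, MTS-type absorbance at 490/660 nm relative to time zero gave IC50 via four-parameter fitting.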
# KRAS G12D = molecular target: T3, KRAS G12D (Homo sapiens, UniProt P01116, G12D); assay: HTRF assay, KRAS G12D interaction with SOS1; format: biochemical; settings: bins <500 nM / 500 nM to 1000 nM, read-out: Inhibition of KRAS G12D (IC50)
# T3 construct: made in house; host or cells: E. coli, e.g. BL21 (DE3)
# T3 sequence (P01116 1-188 isoform P01116-2 G12D): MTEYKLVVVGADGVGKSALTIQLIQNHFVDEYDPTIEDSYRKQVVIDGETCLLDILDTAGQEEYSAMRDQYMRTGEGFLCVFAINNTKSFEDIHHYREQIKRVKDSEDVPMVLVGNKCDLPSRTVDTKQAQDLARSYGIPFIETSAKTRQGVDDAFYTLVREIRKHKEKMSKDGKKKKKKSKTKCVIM
# KRAS WT = molecular target: T4, KRAS WT (Homo sapiens, UniProt P01116); assay: HTRF assay, wildtype KRAS interaction with SOS1; format: biochemical; settings: bins <500 nM / 500 nM to 1000 nM, read-out: Inhibition of KRAS WT (IC50)
# T4 construct: made in house; host or cells: E. coli, e.g. BL21 (DE3)
# T4 sequence (P01116 1-188 isoform P01116-2): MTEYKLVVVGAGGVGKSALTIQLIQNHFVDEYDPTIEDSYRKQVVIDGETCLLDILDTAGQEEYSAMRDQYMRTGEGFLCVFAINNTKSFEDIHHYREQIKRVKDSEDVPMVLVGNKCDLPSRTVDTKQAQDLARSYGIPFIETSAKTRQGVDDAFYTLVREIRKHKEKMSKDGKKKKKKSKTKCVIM
# T1 sequence (P01116 1-188 isoform P01116-2 G12S): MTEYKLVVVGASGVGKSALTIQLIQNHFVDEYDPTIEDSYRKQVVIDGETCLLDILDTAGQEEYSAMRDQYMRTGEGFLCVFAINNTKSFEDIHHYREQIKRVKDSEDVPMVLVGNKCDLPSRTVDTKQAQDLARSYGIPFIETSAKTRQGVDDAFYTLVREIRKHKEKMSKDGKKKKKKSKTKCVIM
Structure (SMILES),IC50 (KRAS G12S) [nM],IC50 (KRAS G12V) [nM],IC50 (MiaPaca2 cells) [nM],IC50 (KRAS G12D) [nM],IC50 (KRAS WT) [nM]
"Cc1nccn1C(=O)N1CC2(CCN(c3nc(OC[C@@]45CCCN4C[C@H](F)C5)nc4c(F)c(-c5ccc(F)c6sc(N)c(C#N)c56)c(Cl)cc34)C2)C1 [Compound 123, 2-amino-4-(6-chloro-8-fluoro-2-(((2R,7aS)-2-fluorotetrahydro-1H-pyrrolizin-7a(5H)-yl)methoxy)-4-(2-(2-methyl-1H-imidazole-1-carbonyl)-2,6-diazaspiro[3.4]octan-6-yl)quinazolin-7-yl)-7-fluorobenzo[b]thiophene-3-carbonitrile]",< 500,< 500,≤ 500,< 500,< 500
"Cc1c(C#N)ncn1C(=O)N1C[C@]2(CC[C@H](C)N(c3nc(OC[C@@]45CCCN4C[C@H](F)C5)nc4c(F)c(-c5ccc(F)c6sc(N)c(C#N)c56)c(Cl)cc34)C2)[C@H]1C1(C)CC1 [Compound 202, 1-((1R,4R,7S)-6-(7-(2-amino-3-cyano-7-fluorobenzo[b]thiophen-4-yl)-6-chloro-8-fluoro-2-(((2R,7aS)-2-fluorotetrahydro-1H-pyrrolizin-7a(5H)-yl)methoxy)quinazolin-4-yl)-7-methyl-1-(1-methylcyclopropyl)-2,6-diazaspiro[3.5]nonane-2-carbonyl)-5-methyl-1H-imidazole-4-carbonitrile]",< 500,< 500,≤ 500,< 500,< 500
"C[C@@H]1[C@H](N(C)c2nc(OC[C@@]34CCCN3C[C@H](F)C4)nc3c(F)c(-c4ccc(F)c5sc(N)c(C#N)c45)c(Cl)cc23)CCN1C(=O)n1ccnc1C1CC1 [Compound 201, 2-amino-4-(6-chloro-4-(((2R,3R)-1-(2-cyclopropyl-1H-imidazole-1-carbonyl)-2-methylpyrrolidin-3-yl)(methyl)amino)-8-fluoro-2-(((2R,7aS)-2-fluorotetrahydro-1H-pyrrolizin-7a(5H)-yl)methoxy)quinazolin-7-yl)-7-fluorobenzo[b]thiophene-3-carbonitrile]",< 500,< 500,≤ 500,< 500,< 500

# Other lines, results leading:
IC50 (KRAS G12S) [nM],IC50 (KRAS G12V) [nM],IC50 (MiaPaca2 cells) [nM],IC50 (KRAS G12D) [nM],IC50 (KRAS WT) [nM],Structure (SMILES)
< 500,< 500,≤ 500,< 500,< 500,"C[C@@H]1[C@H](N(C)c2nc(OC[C@@]34CCCN3C[C@H](F)C4)nc3c(F)c(-c4ccc(F)c5sc(N)c(C#N)c45)c(Cl)cc23)CCN1C(=O)n1ccnc1 [Compound 124, 4-(4-(((2R,3R)-1-(1H-imidazole-1-carbonyl)-2-methylpyrrolidin-3-yl)(methyl)amino)-6-chloro-8-fluoro-2-(((2R,7aS)-2-fluorotetrahydro-1H-pyrrolizin-7a(5H)-yl)methoxy)quinazolin-7-yl)-2-amino-7-fluorobenzo[b]thiophene-3-carbonitrile]"
< 500,< 500,≤ 500,< 500,< 500,"Cc1cn(C(=O)N2CC3(CCCCN(c4nc(OC[C@@]56CCCN5C[C@H](F)C6)nc5c(F)c(-c6ccc(F)c7sc(N)c(C#N)c67)c(Cl)cc45)C3)C2)cn1 [Compound 164, 2-amino-4-(6-chloro-8-fluoro-2-(((2R,7aS)-2-fluorotetrahydro-1H-pyrrolizin-7a(5H)-yl)methoxy)-4-(2-(4-methyl-1H-imidazole-1-carbonyl)-2,6-diazaspiro[3.6]decan-6-yl)quinazolin-7-yl)-7-fluorobenzo[b]thiophene-3-carbonitrile]"
< 500,< 500,≤ 500,< 500,< 500,"Cc1nc(C#N)cn1C(=O)N1CC[C@@H](N(C)c2nc(OC[C@@]34CCCN3C[C@H](F)C4)nc3c(F)c(-c4ccc(F)c5sc(N)c(C#N)c45)c(Cl)cc23)[C@H]1C [Compound 158, 1-((2R,3R)-3-((7-(2-amino-3-cyano-7-fluorobenzo[b]thiophen-4-yl)-6-chloro-8-fluoro-2-(((2R,7aS)-2-fluorotetrahydro-1H-pyrrolizin-7a(5H)-yl)methoxy)quinazolin-4-yl)(methyl)amino)-2-methylpyrrolidine-1-carbonyl)-2-methyl-1H-imidazole-4-carbonitrile]"
